Columns and labels:
[1] = tested on: RT112; experiment: Proliferation assay using bladder cancer cell lines: RT112; type: cell-based, human; conditions: Homo sapiens, RT-112; 72 h culture, CyQuant proliferation assay
Method: (§1) Bladder cancer cell lines (T24, RT112, HT1376 and RT4 are human bladder cancer cell lines; NHEK are normal human keratinocytes) were obtained from the European Collection of Cell Cultures (Salisbury, UK). Cells were plated at 3×10^3 per well, in flat bottomed 96-well plates in 100 μl of DMEM medium containing: 5% Fetal Clone 1,50 μg/l gentamicin, 1 mM sodium pyruvate and 1% non-essential amino acids. After culturing for 24 h at 37° C. in 5% CO2, to allow cells to adhere to the plates, VDR ligands (compounds (1)-(14)) were added at concentrations ranging from 100 μM to 0.3 μM in 100 μl of above-mentioned complete medium. After a further 72 h of culture, cell proliferation was measured using a fluorescence-based proliferation assay kit. (CyQuant Cell Proliferation Assay Kit, Molecular Probes, Eugene, Oreg., USA). The IC50 was calculated from the regression curve of the titration data.

[2] = tested on: IFN-γ production by allogeneic PBMC; experiment: IFN-γ production in the mixed leukocyte response (MLR); type: cell-based; conditions: 120 h; MLR of allogeneic PBMC, 5 days, ELISA; read-out: INF-γ IC50
Method: Immature dendritic cells (DC) were prepared as described in Romani, N. et al. (Romani, N. et al. (1996) J. Immunol. Meth. 196:137). IFN-γ production by allogeneic T cell activation in the mixed leukocyte response (MLR) was determined as described in Penna, G., et al., J Immunol., 164: 2405-2411 (2000).
Briefly, peripheral blood mononuclear cells (PBMC) were separated from buffy coats by Ficoll gradient and the same number (3×10^5) of allogeneic PBMC from 2 different donors were co-cultured in 96-well flat-bottom plates. The vitamin D3 compounds were added to each of the cultures.

[3] = tested on: RT4; experiment: Proliferation assay using bladder cancer cell lines: RT4; type: cell-based, human; conditions: Homo sapiens, RT-4; 72 h culture, CyQuant proliferation assay
Method: as §1

[4] = tested on: Renin mRNA in As4.1 cells; experiment: Renin mRNA inhibition in murine juxtaglomerular cell line As4.1; type: cell-based; conditions: Mus musculus, 24 h, real time PCR normalized versus β-actin, read-out: Renin mRNA inh.As4.1/wt
Method: As4.1 cells (80% subconfluent) were treated in complete medium with compounds of the invention at 10^−8, 10^−9 and 10^−10 M for 24 h. Total RNA was extracted using RNeasy Mini kit (Qiagen); treated with DNase I (Qiagen) and Reverse Transcription Reagent (Applied Biosystems) with Random Examers were used for reverse transcription according to the manufacturers' instructions. Real Time PCR analysis was performed in multiplex using commercially available β-actin VIC-conjugated probe (cat. n. 4352341E, Applied Biosystems) and custom designed mRENIN FAM-conjugated probe (Assay by Design, Applied Biosystems; Forward: […]; Reverse: […]; Probe: FAM-[…]-MGB). Reactions were performed in a 25 μL volume containing 12,5 μl 2× Master Mix (Applied Biosystems), 10 ng/reaction/well cDNA, and 2,5 μM each gene-specific primer. An ABI PRISM 7700 analyzer (Applied Biosystems) was used at 50° C. for 2 minutes and 95° C. for 10 minutes, followed by 40 cycles at 95° C. for 15 seconds and 60° C. for 1 minute. Cycle threshold (Ct) values were exported onto Excel worksheets for analysis. Test cDNA results were normalized versus mouse β-actin housekeeping gene. Fold differences in gene expression between the subtracted versus the unsubtracted populations were expressed using the method of 2^−ΔΔCt. (Table 6)

[5] = Determination of Maximum Tolerated Dose (MTD) in mice; conditions: mouse, in vivo, po; female C57BL/6 mice, p.o. daily for four days; highest dose without hypercalcemia (serum calcium >10.7 mg/dl)
[6] = tested on: NHEK; experiment: Proliferation assay: NHEK normal human keratinocytes; type: cell-based; conditions: 72 h culture, CyQuant proliferation assay
Method: as §1

[7] = tested on: human stromal bladder cells; experiment: Basal growth of human stromal bladder cells; type: cell-based; conditions: FIG. 2
From the text: The Inventors confirmed the presence of vitamin D receptors (VDRs), as previously reported in the literature, on these cells (see below in FIG. 1).
The maximum tolerated dose (MTD) in rats is also listed for each compound (Table 5).

SMILES	IC50 [1] [nM]	IC50 [2] [nM]	IC50 [3] [nM]	IC50 [4] [nM]	MTD at 4 days [5] [µg/kg]	IC50 [6] [nM]	inhibiting the basal growth of bladder cells [7]
C=C1/C(=C\C=C2/CCC[C@]3(C)C(C4(CC#CC(C)(C)O)CC4)=CCC23)CC(O)C[C@@H]1F (stereo partly drawn) [Compound 11, 1α-Fluoro-25-hydroxy-16-ene-23-yne-20-cyclopropyl-cholecalciferol]	> 30000	0.0164	16700	303	100	–	–
C=C1/C(=C\C=C2/CCC[C@]3(C)C(C4(CC#CC(C)(C)O)CC4)=CCC23)CC(O)C[C@@H]1O (stereo partly drawn) [Compound 1, 1α,25-Dihydroxy-16-ene-20-cyclopropyl-23,24-yne-cholecalciferol]	> 30000	0.0336	10600	9.42	10	–	–
C=C1/C(=C\C=C2/CCC[C@]3(C)C(C4(C/C=C\C(O)(C(F)(F)F)C(F)(F)F)CC4)=CCC23)CC(O)C[C@@H]1F (stereo partly drawn) [Compound 14, 1α-Fluoro-25-hydroxy-16,23Z-diene-20-cyclopropyl-26,27-hexafluoro-cholecalciferol]	21000	0.081	3100	6	1	4000	–
C[C@]12CCC/C(=C\C=C3\CC(O)C[C@H](O)C3)C1CC=C2C1(C/C=C/C(O)(C(F)(F)F)C(F)(F)F)CC1 (stereo partly drawn) [Compound 5, 1α,25-Dihydroxy-16-ene-20-cyclopropyl-23,24-E-ene-26,27-hexafluoro-19-nor-cholecalciferol]	14500	0.012	4600	4.4	–	4900	–
C=C1/C(=C\C=C2/CCC[C@]3(C)C(C4(CCCC(C)(C)O)CC4)=CCC23)CC(O)C[C@@H]1O (stereo partly drawn) [Compound 10, 1α,25-Dihydroxy-16-ene-20-cyclopropyl-cholecalciferol]	27600	–	2000	26.2	1	5200	effective
C=C1/C(=C\C=C2/CCC[C@]3(C)C(C4(CC#CC(O)(C(F)(F)F)C(F)(F)F)CC4)=CCC23)CC(O)C[C@@H]1O (stereo partly drawn) [Compound 4, 1α,25-Dihydroxy-16-ene-20-cyclopropyl-23,24-yne-26,27 hexafluoro-cholecalciferol]	13800	0.045	1700	2.99	0.3	2000	effective
C=C1/C(=C\C=C2/CCC[C@]3(C)C(C4(C/C=C/C(O)(C(F)(F)F)C(F)(F)F)CC4)=CCC23)CC(O)C[C@@H]1F (stereo partly drawn) [Compound 13, 1α-Fluoro-25-hydroxy-16,23E-diene-20-cyclopropyl-26,27-hexafluoro-cholecalciferol]	17000	0.065	3600	9.5	3	5100	–
C=C1/C(=C\C=C2/CCC[C@]3(C)C(C4(CC#CC(O)(C(F)(F)F)C(F)(F)F)CC4)=CCC23)CC(O)C[C@@H]1F (stereo partly drawn) [Compound 12, 1α-Fluoro-25-hydroxy-16-ene-20-cyclopropyl-23-yne-26,27-hexafluoro-cholecalciferol]	16900	0.585	3600	9.73	0.3	1000	–
C=C1/C(=C\C=C2/CCC[C@]3(C)C(C4(C/C=C/C(O)(C(F)(F)F)C(F)(F)F)CC4)=CCC23)CC(O)C[C@@H]1O (stereo partly drawn) [Compound 6, 1α,25-Dihydroxy-16-ene-20-cyclopropyl-23,24-E-ene-26,27-hexafluoro-cholecalciferol]	10600	0.04	2300	0.547	0.3	5800	effective
CC(C)(O)C#CCC1(C2=CCC3/C(=C/C=C4/CC(O)C[C@H](O)C4)CCC[C@]23C)CC1 (stereo partly drawn) [Compound 2, 1α,25-Dihydroxy-16-ene-20-cyclopropyl-23,24-yne-19-nor-cholecalciferol]	> 30000	0.0254	6300	97.2	10	–	–

— US20080318911A1, “20-Cyclopropyl, 26,27-Alkyl/Haloalkyl Vitamin D3 Compounds and Methods of Use Thereof” (BIOXELL S.P.A., priority 2004, published 2008)
